The text below walks through data of patent publication US20120263849A1, “BITTERNESS SUPPRESSION METHOD” (KAO CORPORATION, priority 2010, published 2012).

A short description of the experiment: Sensory test of bitterness, agent added to quinine sulfate standard solutions. It counts as in vivo, people. To be noted: summary of Tables 2 to 4 (quinine sulfate and catechin test solutions). The protocol:
The bitterness suppression agent of the present invention may be applied to any substance without any particular limitation as long as the substance contains a bitter component. It is preferably applied to a composition having a bitterness having a bitterness intensity of 7 or less based on the quinine sulfate standard solution. […] More specifically, the bitterness intensity is determined by the following procedure. […] Then, the values of bitterness intensity determined by each subject are averaged out and provided as the bitterness intensity of the test substance. […]
Five subjects conducted a sensory test with reference to the bitterness level of each test solution using the quinine sulfate standard solutions shown in the following Table 1 as a standard, and an average score of the evaluation scores submitted by each subject was calculated. […]

For `COC(=O)c1ccccc1O` [methyl salicylate], the “Suppression of bitterness (summary in words)” value was “effective suppression of bitterness without impairing the original taste and flavor”.
